We go through 27 compounds from patent publication US8349824B2, “Triazolopyridine compounds” (Hoffmann-La Roche Inc., priority 2010, dated 2013).

One series deals with T1, human PDE10A full length (Homo sapiens, UniProt Q9Y233).
T1 construct: purchased Enzo Life Science, Lausen, Switzerland SE-534
The series can be described thus: PDE10A Scintillation Proximity Assay (SPA), human PDE10A full length assay. Particulars: 50 nM cGMP + 50 nM [3H]-cGMP, 20 minutes at room temperature, read-out: PDE10A inhibition IC50. The series is classed as biochemical. The method, boiled down:
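IC50 values come from radioactive counts across a range of inhibitor concentrations, using YSi-SPA beads in zinc sulphate as stop reagent. Full-length enzyme hydrolysed 50 nM cGMP with 50 nM [3H]-cGMP for 20 min at room temperature in pH 7.5 HEPES buffer containing 10 mM MgCl2 and 0.05 mg/ml BSA.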
(Scintillation proximity formats need no separation of bound from free tracer.)

Usually IC50 stands for the point on the concentration scale where inhibition reaches its midpoint. Broadly, the melting point is the temperature, or range, at which the solid turns liquid.

The structures appear in SMILES notation. Where only a bound is given, the exact number is not on record here.

T1 sequence (Q9Y233 1-779 isoform Q9Y233-1): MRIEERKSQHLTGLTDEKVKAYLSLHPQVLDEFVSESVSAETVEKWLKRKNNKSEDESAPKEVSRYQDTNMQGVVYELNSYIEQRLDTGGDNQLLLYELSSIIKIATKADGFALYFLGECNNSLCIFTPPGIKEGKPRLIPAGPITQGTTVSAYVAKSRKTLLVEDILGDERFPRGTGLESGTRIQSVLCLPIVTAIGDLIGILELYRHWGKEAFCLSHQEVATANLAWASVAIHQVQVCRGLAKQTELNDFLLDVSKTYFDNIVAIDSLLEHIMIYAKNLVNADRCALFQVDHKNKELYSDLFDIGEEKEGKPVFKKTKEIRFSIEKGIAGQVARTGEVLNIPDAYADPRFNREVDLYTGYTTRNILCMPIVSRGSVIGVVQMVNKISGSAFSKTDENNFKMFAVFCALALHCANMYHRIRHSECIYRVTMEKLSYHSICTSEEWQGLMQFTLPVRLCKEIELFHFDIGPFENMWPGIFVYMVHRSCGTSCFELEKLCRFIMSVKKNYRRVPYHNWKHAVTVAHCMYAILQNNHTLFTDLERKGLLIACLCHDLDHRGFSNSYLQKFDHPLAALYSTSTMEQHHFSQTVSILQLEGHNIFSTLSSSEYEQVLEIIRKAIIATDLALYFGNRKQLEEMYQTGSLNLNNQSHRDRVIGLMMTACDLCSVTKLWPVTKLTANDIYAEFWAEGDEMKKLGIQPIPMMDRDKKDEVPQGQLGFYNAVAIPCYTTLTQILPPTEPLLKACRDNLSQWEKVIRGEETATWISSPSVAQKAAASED

Compound `COCCN(C)C(=O)c1cnn(C)c1C(=O)Nc1ccn2nc(-c3ccccc3)nc2c1` [Example 4, N4-(2-methoxyethyl)-N4,1-dimethyl-N5-(2-phenyl-[1,2,4]triazolo[1,5-a]pyridin-7-yl)-1H-pyrazole-4,5-dicarboxamide] showed a melting point of 172 to 175 °C. Further, the concentration for half-maximal inhibition (IC50) at human PDE10A full length turned out to be 0.28 nM.

Compound `CCN(C)C(=O)c1cnn(C)c1C(=O)Nc1ccn2nc(-c3ccccc3)nc2c1` [Example 5, N4-ethyl-N4,1-dimethyl-N5-(2-phenyl-[1,2,4]triazolo[1,5-a]pyridin-7-yl)-1H-pyrazole-4,5-dicarboxamide] returned a melting point of 193 to 194 °C. In addition, the 50% inhibitory concentration (IC50) at human PDE10A full length is 0.5 nM.

Take `CCNC(=O)c1cnn(C)c1C(=O)Nc1ccn2nc(-c3ccccc3)nc2c1` [Example 7, N4-ethyl-1-methyl-N5-(2-phenyl-[1,2,4]triazolo[1,5-a]pyridin-7-yl)-1H-pyrazole-4,5-dicarboxamide]: the melting point was in the range of 253 to 255 °C. Moreover, the IC50 at human PDE10A full length was found to be 1.63 nM.

`Cn1ncc(C(=O)N2CCC2)c1C(=O)Nc1ccn2nc(N3CCOCC3)nc2c1` [Example 8, 4-(Azetidine-1-carbonyl)-1-methyl-N-(2-morpholino-[1,2,4]triazolo[1,5-a]pyridin-7-yl)-1H-pyrazole-5-carboxamide] had a melting point of 232 to 234 °C. Further, the 50% inhibitory concentration (IC50) on human PDE10A full length is 1.88 nM.

As for `Cc1c(NC(=O)c2c(C(=O)N3CCC3)cnn2C)ccn2nc(-c3ccccc3)nc12` [Example 9, 4-(Azetidine-1-carbonyl)-1-methyl-N-(8-methyl-2-phenyl-[1,2,4]triazolo[1,5-a]pyridin-7-yl)-1H-pyrazole-5-carboxamide], the melting point fell in the range of 243 to 245 °C. Moreover, the half-inhibitory concentration (IC50) at human PDE10A full length was 16.3 nM.

The compound `Cc1cn2nc(-c3ccccc3)nc2cc1NC(=O)c1c(C(=O)N2CCC2)cnn1C` [Example 10, 4-(Azetidine-1-carbonyl)-1-methyl-N-(6-methyl-2-phenyl-[1,2,4]triazolo[1,5-a]pyridin-7-yl)-1H-pyrazole-5-carboxamide] returned a melting point of 226 to 228 °C. Also, at human PDE10A full length, the IC50 is 0.19 nM.

With `CN(C)C(=O)c1cnn(C)c1C(=O)Nc1ccn2nc(-c3ccccc3)nc2c1` [Example 11, 2-Methyl-2H-pyrazole-3,4-dicarboxylic acid 4-dimethylamide 3-[(2-phenyl-[1,2,4]triazolo[1,5-a]pyridin-7-yl)-amide]], the melting point was over 250 °C. Moreover, the half-inhibitory concentration (IC50) on human PDE10A full length came to 0.9 nM.

`Cn1ncc(C(=O)N2CCCC2)c1C(=O)Nc1ccn2nc(-c3ccccc3)nc2c1` [Example 13, 1-Methyl-N-(2-phenyl-[1,2,4]triazolo[1,5-a]pyridin-7-yl)-4-(pyrrolidine-1-carbonyl)-1H-pyrazole-5-carboxamide] showed a melting point of 210 to 215 °C. The IC50 on human PDE10A full length turned out to be 0.13 nM.

`Cn1ncc(C(=O)N[C@H]2CCOC2)c1C(=O)Nc1ccn2nc(-c3ccccc3)nc2c1` [Example 14, (S)-1-Methyl-N5-(2-phenyl-[1,2,4]triazolo[1,5-a]pyridin-7-yl)-N4-(tetrahydrofuran-3-yl)-1H-pyrazole-4,5-dicarboxamide] displayed a melting point of over 250 °C. Moreover, at human PDE10A full length, the concentration for half-maximal inhibition (IC50) was found to be 12.4 nM.

In turn, `Cn1ncc(C(=O)N[C@@H]2CCOC2)c1C(=O)Nc1ccn2nc(-c3ccccc3)nc2c1` [Example 15, (R)-1-Methyl-N5-(2-phenyl-[1,2,4]triazolo[1,5-a]pyridin-7-yl)-N4-(tetrahydrofuran-3-yl)-1H-pyrazole-4,5-dicarboxamide] yielded a melting point of over 250 °C. In addition, the 50% inhibitory concentration (IC50) at human PDE10A full length is 4.85 nM.

For the compound `COCCCNC(=O)c1cnn(C)c1C(=O)Nc1ccn2nc(-c3ccccc3)nc2c1` [Example 16, N4-(3-Methoxypropyl)-1-methyl-N5-(2-phenyl-[1,2,4]triazolo[1,5-a]pyridin-7-yl)-1H-pyrazole-4,5-dicarboxamide], the melting point was in the range of 191 to 193 °C. On human PDE10A full length, the IC50 came to 2.34 nM.

As to `Cn1ncc(C(=O)NC2COC2)c1C(=O)Nc1ccn2nc(-c3ccccc3)nc2c1` [Example 17, 1-Methyl-N4-(oxetan-3-yl)-N5-(2-phenyl-[1,2,4]triazolo[1,5-a]pyridin-7-yl)-1H-pyrazole-4,5-dicarboxamide], the melting point was over 250 °C. At human PDE10A full length, the IC50 turned out to be 11.8 nM.

Compound `CCN(CC)C(=O)c1cnn(C)c1C(=O)Nc1ccn2nc(-c3ccccc3)nc2c1` [Example 18, N4,N4-diethyl-1-methyl-N5-(2-phenyl-[1,2,4]triazolo[1,5-a]pyridin-7-yl)-1H-pyrazole-4,5-dicarboxamide] yielded a melting point of 177 to 179 °C. Also, on human PDE10A full length, the concentration for half-maximal inhibition (IC50) is 0.25 nM.

`CC(C)NC(=O)c1cnn(C)c1C(=O)Nc1ccn2nc(-c3ccccc3)nc2c1` [Example 19, N4-isopropyl-1-methyl-N5-(2-phenyl-[1,2,4]triazolo[1,5-a]pyridin-7-yl)-1H-pyrazole-4,5-dicarboxamide] showed a melting point of over 250 °C. Further, at human PDE10A full length, the 50% inhibitory concentration (IC50) came out at 5.38 nM.

Regarding `Cc1ccc(CN(C)C(=O)c2cnn(C)c2C(=O)Nc2ccn3nc(-c4ccccc4)nc3c2)cn1` [Example 20, N4,1-dimethyl-N4-((6-methylpyridin-3-yl)methyl)-N5-(2-phenyl-[1,2,4]triazolo[1,5-a]pyridin-7-yl)-1H-pyrazole-4,5-dicarboxamide], the melting point lay in the range of 110 to 150 °C. The IC50 at human PDE10A full length was 1.24 nM.

Consider `Cn1ncc(C(=O)N2CCS(=O)(=O)CC2)c1C(=O)Nc1ccn2nc(-c3ccccc3)nc2c1` [Example 22, 4-(1,1-Dioxo-thiomorpholine-4-carbonyl)-2-methyl-2H-pyrazole-3-carboxylic acid (2-phenyl-[1,2,4]triazolo[1,5-a]pyridin-7-yl)-amide], for which the melting point was over 250 °C. Moreover, the IC50 on human PDE10A full length was found to be 9.01 nM.

Consider `CNC(=O)c1cnn(C)c1C(=O)Nc1ccn2nc(-c3ccccc3)nc2c1` [Example 23, N4,1-dimethyl-N5-(2-phenyl-[1,2,4]triazolo[1,5-a]pyridin-7-yl)-1H-pyrazole-4,5-dicarboxamide], for which the melting point was over 250 °C. Besides, on human PDE10A full length, the IC50 came out at 4.25 nM.

`COC1CN(C(=O)c2cnn(C)c2C(=O)Nc2ccn3nc(-c4ccccc4)nc3c2)C1` [Example 24, 4-(3-Methoxyazetidine-1-carbonyl)-1-methyl-N-(2-phenyl-[1,2,4]triazolo[1,5-a]pyridin-7-yl)-1H-pyrazole-5-carboxamide]: the melting point was in the range of 269 to 270 °C. The IC50 at human PDE10A full length stood at 21.5 nM.

`Cn1ncc(C(=O)N2CC(F)C2)c1C(=O)Nc1ccn2nc(-c3ccccc3)nc2c1` [Example 25, 4-(3-Fluoroazetidine-1-carbonyl)-1-methyl-N-(2-phenyl-[1,2,4]triazolo[1,5-a]pyridin-7-yl)-1H-pyrazole-5-carboxamide]: the melting point was 259 to 262 °C. For the same compound, the IC50 at human PDE10A full length stood at 0.39 nM.

`CCOC(=O)c1cnn(C)c1C(=O)Nc1ccn2nc(-c3ccccc3)nc2c1` [Example 28, ethyl 1-methyl-5-(2-phenyl-[1,2,4]triazolo[1,5-a]pyridin-7-ylcarbamoyl)-1H-pyrazole-4-carboxylate] displayed a melting point of 242 to 243 °C. Also, the IC50 on human PDE10A full length amounted to 7.3 nM.

In the case of `Cn1ncc(C(=O)N2CCOCC2)c1C(=O)Nc1ccn2nc(N3CCOCC3)nc2c1` [Example 29, 1-Methyl-4-(morpholine-4-carbonyl)-N-(2-morpholino-[1,2,4]triazolo[1,5-a]pyridin-7-yl)-1H-pyrazole-5-carboxamide], the melting point was 206 to 208 °C. Moreover, the IC50 at human PDE10A full length came out at 40.5 nM.

With `Cn1ncc(C(=O)N2CCC2)c1C(=O)Nc1cc2nc(-c3ccccc3)nn2cc1F` [Example 30, 4-(Azetidine-1-carbonyl)-N-(6-fluoro-2-phenyl-[1,2,4]triazolo[1,5-a]pyridin-7-yl)-1-methyl-1H-pyrazole-5-carboxamide], the melting point was over 250 °C. Also, the 50% inhibitory concentration (IC50) on human PDE10A full length came to 1.27 nM.

For `Cn1ncc(C(=O)N2CCCC2)c1C(=O)Nc1cc2nc(-c3ccccc3)nn2cc1F` [Example 31, N-(6-fluoro-2-phenyl-[1,2,4]triazolo[1,5-a]pyridin-7-yl)-1-methyl-4-(pyrrolidine-1-carbonyl)-1H-pyrazole-5-carboxamide], the melting point fell in the range of 250 to 251 °C. Also, the IC50 at human PDE10A full length was found to be 0.48 nM.

Regarding `Cn1ncc(C(=O)N2CCOCC2)c1C(=O)Nc1cc2nc(-c3ccccc3)nn2cc1F` [Example 32, 2-Methyl-4-(morpholine-4-carbonyl)-2H-pyrazole-3-carboxylic acid (6-fluoro-2-phenyl-[1,2,4]triazolo[1,5-a]pyridin-7-yl)-amide], the melting point is 224 to 225 °C. In addition, the IC50 at human PDE10A full length is 0.98 nM.

In turn, `CC(C)c1nc2cc(NC(=O)c3c(C(=O)N4CCCC4)cnn3C)ccn2n1` [Example 34, N-(2-isopropyl-[1,2,4]triazolo[1,5-a]pyridin-7-yl)-1-methyl-4-(pyrrolidine-1-carbonyl)-1H-pyrazole-5-carboxamide] displayed a melting point of 141 to 143 °C. For the same compound, on human PDE10A full length, the 50% inhibitory concentration (IC50) came to 28.3 nM.

In the case of `CN(C)c1nc2cc(NC(=O)c3c(C(=O)N4CCC4)cnn3C)ccn2n1` [Example 35, 4-(Azetidine-1-carbonyl)-N-(2-(dimethylamino)-[1,2,4]triazolo[1,5-a]pyridin-7-yl)-1-methyl-1H-pyrazole-5-carboxamide], the melting point fell in the range of 240 to 241 °C. Besides, at human PDE10A full length, the IC50 is 7.39 nM.

Compound `CN(C)c1nc2cc(NC(=O)c3c(C(=O)N4CCOCC4)cnn3C)ccn2n1` [Example 36, N-(2-(dimethylamino)-[1,2,4]triazolo[1,5-a]pyridin-7-yl)-1-methyl-4-(morpholine-4-carbonyl)-1H-pyrazole-5-carboxamide] gave a melting point of 196 to 198 °C. Further, the IC50 on human PDE10A full length amounted to 43.5 nM.
